Data reported in US20250120975A1, “INTEGRIN INHIBITORS FOR TREATMENT OF PRIMARY SCLEROSING CHOLANGITIS” (Pliant Therapeutics, Inc., priority 2023, published 2025).
Entries after “also recorded” stand apart in the source; their conditions may differ. Like-named read-outs stand apart in the source and are kept apart here.

Experiments:
[1] = tested on: BALB/c.Mdr2−/− mouse model of biliary fibrosis; experiment: Connective tissue (picrosirius red) histology; type: in vivo; conditions: 300 and 1000 mg/kg, 6 weeks
Description: The tissue source is BALBc.Mdr2-/−male mice that were 6 weeks old. The Mdr2(abcb4)−/− mouse model of sclerosing cholangitis has been previously described and is a model of spontaneously progressive hepatic fibrosis in mice with deletion of the biliary phospholipid flippase on fibrosis-susceptible background (Mdr2(abcb4)^−/−. BALB/c mouse). See N. Ikenaga, et al. (2015) Am J Pathol. 185 (2): 325-334, the entire contents of which are hereby incorporated by reference in their entirety.
(S)-4-((2-methoxyethyl)(4-(5,6,7,8-tetrahydro-1,8-naphthyridin-2-yl)butyl)amino)-2-(quinazolin-4-ylamino)butanoic acid (or PBS) was dosed once daily orally at 100 mg/kg, 300 mg/kg or 1000 mg/kg (see Table B-2) starting at 6 weeks after birth of the subject and continuing for 6 weeks. All animals were euthanized and necropsied at the end of week 12.
Connective tissue stains were carried out to morphometrically assess fibrosis, through analysis of 10 high power fields per animal.

[2] = tested on: subjects with PSC and suspected liver fibrosis; experiment: Phase 2a INTEGRIS-PSC: Enhanced Liver Fibrosis (ELF) score and components; type: in vivo, human
Description: The Enhanced Liver Fibrosis (ELF) score is a set of markers for extracellular matrix (ECM) activity. Three serum markers are measured, tissue inhibitor of metalloproteinases 1 (TIMP-1), amino-terminal propeptide of type III procollagen (PIIINP) and hyaluronic acid (HA). The measurements are combined in an algorithm to provide a score that correlates well with the degree of liver fibrosis (Sharma, C. et al., Journal of Gastroenterology and Hepatology, 36:1788-1802(2021), incorporated by reference herein in its entirety). A change in ELF score greater than or equal to 0.19 is indicative of clinical progression within two years (Muir A. J. et al., Hepatology, 2019 February; 69 (2): 684-698, incorporated by reference herein in its entirety). An ELF greater than or equal to 7.7 is considered moderate to severe fibrosis (Vesterhus M. et al., Hepatology, 2015 July; 62(1):188-97; incorporated by reference herein in its entirety).
In Parts 1 and 2, plasma, serum, and urine biomarker samples were obtained at predetermined times as indicated in the Schedule of Events (see Table B-4). In Part 3, plasma and serum biomarker samples were obtained at predetermined times as indicated in the Schedule of Events (see Table B-5 and Table B-6). These samples were used to measure specific proteins, nucleotides and/or metabolites that were elevated in subjects with fibrosis, and/or pharmacodynamic markers that could change with inhibition of integrins αVβ6 and αVβ1. The samples were also used to perform exploratory investigations using metabolomic or proteomic methods for use in future studies in subjects with fibrotic diseases.
(§1) Absolute and relative changes from Baseline in liver fibrosis biomarkers (including PRO-C3 and ELF) and in ALP are presented in numerical and graphical forms by treatment and dose utilizing data from the timepoints specified in the Schedule of Events. Changes from Baseline to Week 12(Parts 1 and 2) and Week 24 (Part 3) in magnetic resonance (MR)-based liver imaging are also evaluated, as well as changes in PROs.

[3] = Effect of food on pharmacokinetics of the solution; type: in vivo
[4] = tested on: subjects with PSC and suspected liver fibrosis; experiment: Phase 2a INTEGRIS-PSC: gadoxetate contrast MRI of the liver; type: in vivo, human; conditions: for MRI relative enhancement (gadoxetate) / time to arrival to the common bile duct (gadoxetate): Example B-5
Description: Imaging of the whole liver was performed by MRI prior to Baseline and at Week 12 (Parts 1 and 2) and will be performed at Baseline, at Week 12, and at Week 24 (Part 3 only), and will be read centrally utilizing dynamic liver imaging in combination with the contrast agent Gadoxetate disodium and a 4-hour fast (no food or drink, except water). Any clinically significant incidental findings are evaluated as potential AEs.
as §1

[5] = tested on: subjects with PSC and suspected liver fibrosis
[6] = tested on: PCLivS from human liver tissue with biliary fibrosis (PSC, PBC); experiment: Fibrotic gene expression (NanoString) in precision cut liver slices; type: cell-based
[7] = all doses, Week 12, MRI sub-study, Example B-4
[8] = 40 mg (n = 24), 12 weeks, Example B-3
[9] = 40 mg once daily, Week 12, n = 24
[10] = 80 mg (n = 20), 12 weeks, Example B-3
[11] = 80 mg once daily, Week 12, n = 20
[12] = 160 mg (n = 20), 12 weeks, Example B-3
[13] = 160 mg once daily, Week 12, n = 20
[14] = 320 mg once daily, Week 12, n = 27
[15] = 320 mg, Example B-5 24-week data (Table D-7), n = 27
[16] = 40, 80, 160, and 320 mg pooled, Week 12, n = 91
[17] = All (n = 64), 12 weeks, Example B-3
[18] = ≥1 μM, PCLivS from 10 livers with biliary fibrosis (6 PSC, 4 PBC), 2 days

COCCN(CCCCc1ccc2c(n1)NCCC2)CC[C@H](Nc1ncnc2ccccc12)C(=O)O [Bexotegrast, (S)-4-((2-methoxyethyl)(4-(5,6,7,8-tetrahydro-1,8-naphthyridin-2-yl)butyl)amino)-2-(quinazolin-4-ylamino)butanoic acid]
fibrosis by picrosirius red histological staining [1]: significant reductions
ELF score components TIMP-1, HA, PIIINP vs placebo ([2]; 160 mg, Week 12, Example B-3): achieved statistical significance
ELF score, difference to placebo ([2]; 160 mg, Week 12, Example B-3): statistically significant difference
reduction of the mean change in ELF score relative to placebo ([2]; 160 mg, Week 12, Example B-3): 84%
ELF score relative to placebo ([2]; 320 mg, Week 12, Example B-4): reduction
ELF score, overall population ([2]; 320 mg, Week 12 to Week 24, Example B-5): no increase; also recorded: stable ELF score
ELF score, patients at high risk (baseline ELF >9.8) ([2]; 320 mg, Week 24, compared to an increase in the placebo group, Example B-5): reduction in ELF score
ELF score components (TIMP-1, PIIINP, HA) compared to placebo ([2]; 40, 80, 160, 320 mg, Week 12, Example B-4): generally reduced
ELF score relative to placebo ([2]; all doses (40, 80, 160 mg), Week 12, Example B-3): reduced
ELF scores relative to placebo ([2]; all doses (40, 80, 160, 320 mg), Week 12, Example B-4): reduced
decrease of AUCinf in the fed state relative to the fasted state [3]: 37%
decrease of Cmax in the fed state relative to the fasted state [3]: 52%
MRI relative enhancement (gadoxetate) ([4]; 320 mg, Week 12, MRI sub-study): increased relative enhancement
time to arrival to the common bile duct (gadoxetate) ([4]; 320 mg, Week 12, MRI sub-study): decreased time to arrival
MRI imaging: hepatocyte function and bile flow relative to placebo ([4]; 320 mg, Week 12, Example B-4): evidence of improved hepatocyte function and bile flow
MRI relative enhancement (gadoxetate) ([4]; 320 mg, Week 24, MRI sub-study): further increase in relative enhancement
time to arrival to the common bile duct (gadoxetate) ([4]; 320 mg, Week 24, MRI sub-study): faster time to arrival
change in Gadoxetate time of arrival in bile duct ([4]; all doses compared to placebo, Week 12, Example B-3): shorter
MRI relative enhancement in whole liver (gadoxetate) ([4]; all doses, Baseline to Week 12, compared to a reduction in placebo, Example B-3): improvement in relative enhancement
Gadoxetate relative enhancement (RE) compared to the placebo [4, 7]: increase
Gadoxetate time of arrival to the common bile duct compared to the placebo [4, 7]: reduced
COVID-19 TEAE, % of Participants Reporting [5, 8]: (8.3) %
COVID-19 TEAE, n of Participants Reporting [5, 8]: 2 n
TEAE Leading to Death, n of Participants Reporting [5, 8]: 0 n
COVID-19 TEAE, % of Participants Reporting [5, 9]: (8.3) %
COVID-19 TEAE, n of Participants Reporting [5, 9]: 2
TEAE Leading to Death, n of Participants Reporting [5, 9]: 0
TEAE Leading to Withdrawal of bexotegrast, n of Participants Reporting ([5]; 40 mg once daily, Week 12, n = 24, COVID-19/dyspnoea/nasal congestion): 1
TEAE leading to withdrawal: AE Preferred Term ([5]; 40 mg treatment group, Example B-3): COVID-19/
COVID-19 TEAE, % of Participants Reporting [5, 10]: (5.0) %
COVID-19 TEAE, n of Participants Reporting [5, 10]: 1 n
TEAE Leading to Death, n of Participants Reporting [5, 10]: 0 n
COVID-19 TEAE, % of Participants Reporting [5, 11]: (5.0) %
COVID-19 TEAE, n of Participants Reporting [5, 11]: 1
TEAE Leading to Death, n of Participants Reporting [5, 11]: 0
COVID-19 TEAE, n of Participants Reporting [5, 12]: 0 n
TEAE Leading to Death, n of Participants Reporting [5, 12]: 0 n
COVID-19 TEAE, n of Participants Reporting [5, 13]: 0
TEAE Leading to Death, n of Participants Reporting [5, 13]: 0
COVID-19 TEAE, % of Participants Reporting [5, 14]: (14.8) %
COVID-19 TEAE, n of Participants Reporting [5, 14]: 4
TEAE Leading to Death, n of Participants Reporting [5, 14]: 0
TEAE Leading to Death, n of Participants Reporting After Week 12 ([5]; 320 mg, After Week 12 (Table D-4), n = 27): 0
COVID-19 TEAE, % of Participants Reporting [5, 15]: 18.5%
COVID-19 TEAE, n of Participants Reporting [5, 15]: 5
TEAE Leading to Death, n of Participants Reporting ([5]; 320 mg, after 24 weeks (Table D-3), n = 27): 0
COVID-19 TEAE, % of Participants Reporting [5, 16]: (7.7) %
COVID-19 TEAE, n of Participants Reporting [5, 16]: 7
TEAE Leading to Death, n of Participants Reporting [5, 16]: 0
COVID-19 TEAE, % of Participants Reporting [5, 17]: (4.7) %
COVID-19 TEAE, n of Participants Reporting [5, 17]: 3 n
TEAE Leading to Death, n of Participants Reporting [5, 17]: 0 n
Cholangitis (TEAE), n of Participants Reporting ([5]; human, in vivo, 12 weeks): 2 n
Fatigue (TEAE), n of Participants Reporting ([5]; human, in vivo, 12 weeks): 9 n
Frequent bowel movements (TEAE), % of Participants Reporting ([5]; human, in vivo, 12 weeks): (4.7) %
Frequent bowel movements (TEAE), n of Participants Reporting ([5]; human, in vivo, 12 weeks): 3 n
Headache (TEAE), n of Participants Reporting ([5]; human, in vivo, 12 weeks): 6 n
Nausea (TEAE), n of Participants Reporting ([5]; human, in vivo, 12 weeks): 6 n
Pruritus (TEAE), n of Participants Reporting ([5]; human, in vivo, 12 weeks): 9 n
Serious TEAE Related to study drug, n of Participants Reporting ([5]; human, in vivo, 12 weeks): 0 n
Serious TEAE, % of Participants Reporting ([5]; human, in vivo, 12 weeks): (3.1) %
Serious TEAE, n of Participants Reporting ([5]; human, in vivo, 12 weeks): 2 n
TEAE Leading to Early Termination from Study, % of Participants Reporting ([5]; human, in vivo, 12 weeks): (1.6)^1%
TEAE Leading to Early Termination from Study, n of Participants Reporting ([5]; human, in vivo, 12 weeks): 1 n
TEAE Leading to Interruption of Study Drug, % of Participants Reporting ([5]; human, in vivo, 12 weeks): (1.6)^1%
TEAE Leading to Interruption of Study Drug, n of Participants Reporting ([5]; human, in vivo, 12 weeks): 1 n
TEAE Leading to Withdrawal of Study Drug, % of Participants Reporting ([5]; human, in vivo, 12 weeks): (4.7)^2, 3, 4%
TEAE Leading to Withdrawal of Study Drug, n of Participants Reporting ([5]; human, in vivo, 12 weeks): 3 n
TEAE Related to study drug, % of Participants Reporting ([5]; human, in vivo, 12 weeks): (17.2) %
TEAE Related to study drug, n of Participants Reporting ([5]; human, in vivo, 12 weeks): 11 n
TEAE of CTCAE Grade 3 or Higher Related to study drug, n of Participants Reporting ([5]; human, in vivo, 12 weeks): 0 n
TEAE of CTCAE Grade 3 or Higher, % of Participants Reporting ([5]; human, in vivo, 12 weeks): (6.3) %
TEAE of CTCAE Grade 3 or Higher, n of Participants Reporting ([5]; human, in vivo, 12 weeks): 4 n
TEAE, % of Participants Reporting ([5]; human, in vivo, 12 weeks): (64.1) %
TEAE, n of Participants Reporting ([5]; human, in vivo, 12 weeks): 41 n
AEs of pruritus and cholangitis relative to placebo ([5]; in vivo): occurred less frequently
inhibition of the TGF-β-driven COLIA2 expression ([6]; relative to inhibition with high dose ALK5 inhibitor, PCLivS from 10 livers): ≤ 43%
significant reduction in expression of COLIA2 [6, 18]: 19%
significant reduction in expression of TGF-81 [6, 18]: 24%
trend down in overall expression of COL3A1 [6, 18]: 15%
